Test results taken from patent publication US20250171404A1, “PCNA INHIBITORS AND USES THEREOF” (CITY OF HOPE, priority 2022, published 2025).

Legend:
HCT-116 = experiment: Cell growth IC50, screening of AOH1160 analogs; type: cell-based; conditions: Homo sapiens, HCT-116, read-out: IC50 values
HTC-116 = experiment: Cell growth IC50, screening of AOH1160 analogs; type: cell-based; conditions: read-out: IC50 values
MDA-MB-468 = experiment: Cell growth IC50, screening of AOH1160 analogs; type: cell-based; conditions: Homo sapiens, MDA-MB-468, read-out: IC50 values
OVCAR8 = experiment: Cell growth IC50, screening of AOH1160 analogs; type: cell-based; conditions: Homo sapiens, OVCAR-8, read-out: IC50 values
RKO = experiment: Cell growth IC50, screening of AOH1160 analogs; type: cell-based; conditions: Homo sapiens, read-out: IC50 values
[1] = system: SK-N-DZ neuroblastoma cells; experiment: Apoptosis (sub-G1, TUNEL assay), cancer cells; type: cell-based, human; conditions: 500 nM, 24 h
Procedure: FIGS. 3A-3D. Therapeutic properties of AOH1996. FIG. 3A: Normal cells (7SM0032) or cancer cells (SH-SY5Y and SK-N-BE(2)c) cells were fixed, stained with PI, and analyzed by flow cytometry following treatment with 500 nM AOH1996 for the indicated time. FIG. 3B: SK-N-DZ neuroblastoma cells and nonmalignant 7SM0032 stem cells were incubated with 500 nM AOH1996 for 24 h. Then, after being fixed on slides, cell apoptosis were analyzed by a TUNEL assay. Left: TMR fluorophore attached to the free ends of DNA indicates cells undergoing apoptosis. DAPI stained nuclei also shown. Right: Average abundance ±S.D. of apoptotic 7SM0032 (black histogram) and SK-N-DZ (grey histogram) cells relative to the total number of cells are shown in 5 randomly selected fields. […] The relative number of colonies determined in triplicates for each treatment condition were averaged and graphed ±SDs (*, P<0.01). […] Cell growth was measured as the percentage of cell confluence by imaging every 6 h for a total of 48 h.
Cell apoptosis was measured on a chamber slide at a seeding density of 1×10^5/mL. After treatment with 500 nM AOH1996 for 24 h, cells were fixed and analyzed by a TUNEL assay using the TMR red in situ cell death detection kit (Roche Diagnostics).

[2] = system: DNA replication fork extension, SK-N-BE(2)-C or MDA-MB-231 cells; experiment: DNA combing analysis (replication fork extension); type: cell-based; conditions: synchronized cells, 20 minutes
Procedure: FIGS. 7A-7E. Transcription dependent effect on DNA replication and damage. FIG. 7A: Left: Schematic of the cell fractionation procedure. Right: MDA-MB-468 cells were treated by increasing concentrations of AOH1996 (5, 50, or 500 nM) for 24 h. Cells treated with DMSO were used as control. Whole cell extract (WCE) and protein fractions associated with actively transcribed chromatin (CB:RNA+) or with low or non-transcribed chromatin (CB:RNA−) were analyzed by Western blot using antibodies against PCNA, CAF-1, and MCM7. FIG. 7B: Synchronized cancer cells were sequentially incubated in the presence of CldU (light grey) and IdU (dark grey) before and after AOH1996 treatment, respectively. […] Middle and Right: Lengths of CldU (light grey) and IdU (dark grey) incorporated DNA segments measured for more than 30 independent DNA strands from the indicated cancer cell type were averaged and graphed ±S.D. FIG. 7C: Whole cell lysates were extracted from SK-N-AS cells homozygous of the wildtype RPB1 allele or the APIM-mutant allele. Histone H2A.X and γH2A.X was analyzed by Western blot after treatment with or without AOH1996 overnight. FIG. 7D: Histone H2A.X and γH2A.X in whole cell lysates from SK-N-AS cells were analyzed by Western blot after treatment with 500 nM AOH1996 and/or 50 μM DRB overnight. […]

Question: How did the IC50 (HCT-116) turn out when `COc1cccc(Oc2ccccc2NC(=O)CNC(=O)c2cccc3ccccc23)c1` [AOH1996, N-(2-((2-(3-methoxyphenoxy)phenyl)amino)-2-oxoethyl)-1-naphthamide] was run?
Answer: Its IC50 is 786 nM.

Question: And the IC50 (HTC-116)?
Answer: The IC50 was 250 nM.

Question: What about the IC50 (MDA-MB-468) of the same compound?
Answer: The IC50 was 740 nM.

Question: And the IC50 (OVCAR8)?
Answer: Its IC50 is 549 nM.

Question: And the IC50 (RKO)?
Answer: Its IC50 is 255 nM.

Question: And the “apoptosis (sub-G1 population, TUNEL positivity)” value [1]?
Answer: Its value is “induced apoptosis”.

Question: And the “length of IdU-incorporated DNA strands” value [2]?
Answer: The value was “IdU-incorporated DNA strands became significantly shorter in cells treated by AOH1996 than untreated control cells”.
